Assay results published in patent US20220153783A1, “MITOCHONDRIA-TARGETING COMPOUND AND COMPOSITION COMPRISING SAME FOR TREATING OR PREVENTING AGING-RELATED DISEASES” (FUSION BIOTECHNOLOGY CO., LTD., priority 2019, published 2022).
SH = thiol (–SH) group at the N-terminus

Experiments:
[1] = Macromolecular formation of SP-101 by ROS (TEM/SEM); type: physicochemical; conditions: 1 mM and 10 mM in water, stirred 24 hours
Procedure: Specifically, 1 mM SP-101 and 10 mM SP-101 were each dissolved in water and stirred for 24 hours. A drop of an aqueous solution of SP-101 was placed on a formvar/carbon-coated copper grid and evaporated under atmospheric conditions. The sample was stained with a 2 wt % uranyl acetate solution, evaporated for 1 minute, and then the excess solution was removed therefrom by using a filter paper.

[2] = tested on: senescent cells; test: Cytotoxicity of SP-101, MTT cell viability; type: cell-based; conditions: 5 μM to 30 μM SP-101, 24 hours
Procedure: (§1) Specifically, the cell viability of IMR90 and senescent cells against SP-101 was evaluated by identifying the reduction of 3-(4,5-dimethylthiazol-2-yl)-2,5-diphenyltetrazolium bromide (MTT) to insoluble formazan. Cells were seeded at a density of 5×10^3 cells per well in a 96-well plate and cultured overnight, followed by treatment with different concentrations of SP-101 in DMEM medium containing 10% FBS and cultured for 24 hours. Then, the cells were cultured with MTT, and then the crystallized formazan was quantified by measuring the absorbance thereof at 595 nm by using an ELISA plate reader. Results were expressed as percent viability=[(A550 (treated cells)−background value)/(A550 (untreated cells)−background value)]×100.

[3] = tested on: senescent cells; test: SA-b-galactosidase staining of senescent cells; type: cell-based; conditions: 30 μM SP-101 versus untreated control, optical microscope
Procedure: Specifically, SA-b-galactosidase staining was used. Cells that were not treated with anything were used as a control, and those treated with 30 μM of SP-101 were used as an experimental group. SA-gal staining was performed using a kit (Biovision, K320-250) according to the manufacturer's instructions. Senescent cells were identified as blue-stained cells under an optical microscope.

[4] = tested on: choroidal neovascularization; test: Laser-induced CNV model, fluorescein angiography; type: in vivo, mice; conditions: two weeks after laser, compared to Eylea control group
Text: Specifically, the mice were anesthetized by intraperitoneal injection of ketamine hydrochloride and xylazine hydrochloride. By using a diode laser with a wavelength of 810 nm, eight photocoagulation spots, each having the size of 75 μm, the intensity of 250 mW, and the time of 50 ms, were made in concentric circles among the main retinal vessels around the optic nerve. The rupture of the Bruck's membrane was confirmed by identifying that cavitation bubbles had been formed in the choroid. Immediately after laser irradiation, the experimental groups treated with 10 μM, 50 μM, and 100 μM of SP-101, and phosphate buffered saline and Eylea, which were used as control groups, were injected into the vitreous cavity. Two weeks after laser irradiation, fluorescein angiography was performed thereon using a confocal scanning laser fundus camera. After fluorescein-dextran was rapidly injected intravenously, images thereof were taken at the beginning (2 min) and late (10 min).

[5] = Self-assembly of SH-KLAKLAKRGD (TEM, size); type: physicochemical; conditions: dissolved in water (1 mM and 10 mM), stirred 24 hours
Procedure: SH-KLAKLAKRGD (1 mM and 10 mM) was dissolved in water and stirred for 24 hours. A drop of SH-KLAKLAKRGD aqueous solution was placed on a formvar/carbon coated copper grid and allowed to evaporate at ambient conditions. The sample was stained with 2 wt % uranyl acetate solution and evaporated for 1 minute, and the excess solution was removed with filter paper. The specimen was observed using a JEM-1400 TEM operating at 120 kV.

[6] = tested on: senescent cells; test: Cytotoxicity of SH-KLAKLAKRGD, MTT cell viability; type: cell-based; conditions: different concentrations, 24 hours
Procedure: as §1, with “SH-KLAKLAKRGD” for “SP-101”, “MTT” for “3-(4,5-dimethylthiazol-2-yl)-2,5-diphenyltetrazolium bromide (MTT)”

**Q.** Which results are given for “(3-((3-(3,5-dimercaptobenzamido)propyl)dimethylammonium)propyl)triphenylphosphonium [SP-101]”?
**A.** macromolecule formation by oxidation [1]: oxidized to form a macromolecule; killing of senescent cells versus normal cells IMR90 [2]: more senescent cells were killed than normal cells; reduction of senescent cells (blue-stained cells) [3]: senescent cells were reduced; volume of choroidal neovascularization ([4]; 10 μM SP-101 injected into the vitreous cavity): decreased by about twice compared to the Eylea control group; volume of choroidal neovascularization ([4]; 100 μM SP-101 injected into the vitreous cavity): decreased by about twice compared to the Eylea control group

**Q.** Which “size of the polymerized SH-KLAKLAKRGD” value [5] does the source give for “SH-KLAKLAKRGD: mitochondria-targeting compound prepared by solid phase peptide synthesis; NH2-KLAKLAKRGD reacted with disulfide 4, structure in FIG. 10 ({SH}-KLAKLAKRGD-NH2; also: N-terminal thiol group from reaction with disulfide 4)” here?
**A.** 350±100 nm

**Q.** What about the “macromolecule formation (TEM image)” value ([5]; TEM) of the same substance?
**A.** showed a macromolecule in which peptides were polymerized

**Q.** And the “cell viability in senescent cells versus IMR90 normal cell” value [6]?
**A.** cell viability in senescent cells was lower than that in IMR90
